Patent US10301629B2, “Structure, manufacturing and uses of human-derived cell-permeable peptides conjugated with specific biologically active cargo peptides” (priority 2013, dated 2019)

Test system: cytokine response to LPS
Test: Mouse endotoxin (LPS) challenge, peptide pretreatment 30 minutes prior, plasma cytokines
Settings: peptide 500 micrograms per mouse, dexamethasone 3 mg/kg, PPL-002 p<0.01
Procedure: The ability of peptide pretreatment to inhibit the inflammatory cytokine response or stimulate the anti-inflammatory cytokine response to LPS was determined 2 hours after LPS injection (FIG. 10).
Peptides were dosed both i.p. and i.v. at 500 micrograms per mouse (10 mg/kg) 30 minutes prior to challenge by injection of endotoxin (LPS) at a dose of 50 micrograms/kg.

SMILES: C[C@@H]1C[C@H]2[C@@H]3CCC4=CC(=O)C=C[C@]4(C)[C@@]3(F)[C@@H](O)C[C@]2(C)[C@@]1(O)C(=O)CO [Dexamethasone, dexamethasone, reference compound]
- IL-10 level after LPS challenge, i.p. pretreatment: no effect
